Literature values, collected in patent US11591601B2, “Methods for identification and modification of lncRNA associated with target genotypes and phenotypes” (The Broad Institute, Inc., priority 2017, dated 2023).

System: Factor VII
Conditions: hepatocytes in vivo, Factor VII gene silencing model

Row | Molecule | gene silencing potency series of LNP siRNA systems containing the lipid
1 | CCCCC/C=C\C/C=C\CCCCCCCCOCC(CN(C)C)OCCCCCCCC/C=C\C/C=C\CCCCC (stereo not shown) [DLinDMA, 1,2-dilinoleyloxy-3-N,N-dimethylaminopropane] | DLinKC2-DMA>DLinKDMA>DLinDMA>>DLinDAP
2 | CCCCC/C=C\C/C=C\CCCCCCCCC1(CCCCCCCC/C=C\C/C=C\CCCCC)OCC(CCN(C)C)O1 (stereo not shown) [DLinKC2-DMA, 1,2-dilinoleyl-4-(2-dimethylaminoethyl)[1,3]-dioxolane] | DLinKC2-DMA>DLinKDMA>DLinDMA>>DLinDAP
3 | 1,2-dilinoleyloxy-keto-N,N-dimethyl-3-aminopropane [DLinKDMA] | DLinKC2-DMA>DLinKDMA>DLinDMA>>DLinDAP
4 | CCCCC/C=C\C/C=C\CCCCCCCC(=O)OCC(CN(C)C)OC(=O)CCCCCCC/C=C\C/C=C\CCCCC (stereo not shown) [DLinDAP, 1,2-dilineoyl-3-dimethylammonium-propane] | DLinKC2-DMA>DLinKDMA>DLinDMA>>DLinDAP
